According to article PMC6268135, “Synthesis and 5α-Reductase Inhibitory Activity of C21 Steroids Having 1,4-diene or 4,6-diene 20-ones and 4-Azasteroid 20-Oximes” (Molecules, 2011):
Where two headings read alike, the source gives them in different places.

Tests used:
[1] = test system: testosterone 5α-reductase prepared from rat prostates; assay: Testosterone 5α-reductase assay ([1,2,6,7-3H]testosterone as substrate);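 also: conversion of tritiated testosterone to 5α-dihydrotestosterone, separated by TLC and scintillation counted, relative to enzyme control without test sample after subtracting substrate blank without enzyme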
Experimental: Since the rat prostate extracts for measuring testosterone 5α-reductase inhibition were used in a neutral pH buffer, both isozymes were assayed in this study due to differences in its biochemical properties.
The enzyme suspension of testosterone 5α-reductase was prepared from the homogenate of the ventral prostate of male Sprague-Dawley rats using the methods previously reported [32]. Testosterone 5α-reductase inhibition was measured according to the methods previously reported [32]. A brief description follows: Sprague-Dawley male rats 7-8 weeks old were sacrificed by diethyl ether, and the ventral prostates were excised and minced with a pair of scissors. The prostates were homogenized with a glass-glass homogenizer in medium A (0.32 M sucrose, 0.1 mM dithiothreitol and 20 mM sodium phosphate, pH 6.5) to about 20% (w/v). The homogenate was filtered over 8 layers of surgical gauze, and centrifuged at 3,000 × g for 15 min. The resulting pellets were resuspended in medium A to about 25% (w/v) by triturating the suspension sequentially through an 18-gauge and then a 20-gauge needle. The assay mixture containing the test sample in ethanol (10 μL), reaction solution [525 μL, 1 mM dithiothreitol, 40 mM sodium phosphate (pH 6.5), 50 µM NADPH and 2.2 mM [1,2,6,7-^3H]testosterone, 3.15-3.89 TBq/mmol, PerkinElmer (Waltham, MA, USA)] and the enzyme suspension prepared above (40 μL), was incubated at 37°C for 1 h. After extraction with ethyl acetate (1 mL), a sample of the ethyl acetate phase (50 μL) was chromatographed on a silica plastic sheet (Kieselgel 60 F254, Merck KGaA (Darmstadt, Germany)) using the developing solvent system ethyl acetate-cyclohexane (1:1). Each of the testosterone and 5α-dihydrotestosterone areas was cut from the sheet. The ^3H radioactivity of each fragment was counted in 5 mL of Aquasol-2 (PerkinElmer) with a liquid scintillation counter [LS 6500, Beckman Coulter (Brea, CA, USA)]. Testosterone 5α-reductase inhibitory activity was calculated as follows:
where DHT and T are the ^3H radioactivity recovered in the areas of 5α-dihydrotestosterone and testosterone, respectively. rsample and rcontrol are reaction rates of the test sample and the enzyme control in which reaction rates are measured in the presence and absence of test sample, respectively, and rblank is reaction rate of the substrate blank in which reaction rate is measured in the absence of test sample and enzyme suspension. IC50 was calculated from the inhibitory activity values at several concentrations using linear regression analysis. Each enzyme reaction was carried out in duplicate.

[2] = rat prostatic testosterone 5α-reductase
[3] = read-out: IC50 (5α-reductase inhibitory activity), rat prostatic testosterone 5α-reductase
[4] = read-out: IC50 (testosterone 5α-reductase inhibitory activity), rat ventral prostate enzyme suspension, pH 6.5, 37°C, 1 h, both type 1 and type 2 isozymes

Row | Structure (SMILES) | melting point | 5α-reductase inhibitory activity in words [1, 2] | IC50 [1, 3] | IC50 [1, 4]
1 | CC(=NO)[C@H]1CC[C@H]2[C@@H]3CCC4NC(=O)C=C[C@]4(C)[C@H]3CC[C@]12C (stereo partly shown) [Compound 8, 4-Aza-1-pregnene-3,20-dione-20-oxime] | 235 to 237 °C | potent inhibition | 11 nM | 11 nM
2 | CC(=O)[C@H]1CC[C@H]2[C@@H]3[C@@H]4O[C@@H]4C4=CC(=O)C=C[C@]4(C)[C@H]3CC[C@]12C [Compound 13, 6α,7α-Epoxypregna-1,4-diene-3,20-dione] | 206 to 208 °C | no inhibitory activity |  | > 10000 nM
3 | CC(=O)[C@H]1CC[C@H]2[C@@H]3CCC4=CC(=O)CC[C@]4(C)[C@H]3CC[C@]12C [Compound 1, 4-pregnene-3,20-dione, reference compound] |  |  | 6.5 nM | 6.5 nM
4 | CC(=O)[C@H]1CC[C@H]2[C@@H]3C=CC4=CC(=O)C=C[C@]4(C)[C@H]3CC[C@]12C [Compound 9, 1,4,6-Pregnatriene-3,20-dione] | 144 to 146 °C | moderate inhibition |  | 760 nM
5 | CC(=O)O[C@H]1CC[C@@]2(C)C(=CCC3C2CC[C@@]2(C)C3CC[C@@H]2C(C)=O)C1 (stereo partly drawn) [Compound 15, 3β-Acetoxypregnenolone] |  | no inhibition |  | > 10000 nM
6 | CC(=O)[C@H]1CC[C@H]2[C@@H]3C=CC4=CC(=O)[C@@H]5O[C@@H]5[C@]4(C)[C@H]3CC[C@]12C [Compound 10, 1α,2α-Epoxypregna-4,6-diene-3,20-dione] | 183 to 185 °C | no inhibitory activity |  | > 10000 nM
7 | CC(=NO)C1CCC2C3CC4OC45CC(O)CCC5(C)C3CCC12C (stereo not shown) [Compound 18] |  | no inhibition |  | > 10000 nM
8 | CC(=O)[C@H]1CC[C@H]2[C@@H]3CC=C4NC(=O)CC[C@]4(C)[C@H]3CC[C@]12C [Compound 3, 4-Aza-5-pregnene-3,20-dione] | 158 to 160 °C | moderate inhibition |  | 2300 nM
9 | CC(=O)[C@H]1CC[C@H]2[C@@H]3CCC4NC(=O)C=C[C@]4(C)[C@H]3CC[C@]12C (stereo partly shown) [Compound 7, 4-Aza-1-pregnene-3,20-dione] | 174 to 176 °C | potent inhibition |  | 14 nM
10 | CC(=NO)[C@H]1CC[C@H]2[C@@H]3CC=C4NC(=O)CC[C@]4(C)[C@H]3CC[C@]12C [Compound 4, 4-Aza-5-pregnene-3,20-dione-20-oxime] | 208 to 210 °C | potent inhibition | 26 nM | 26 nM
11 | CC(=NO)[C@H]1CC[C@H]2[C@@H]3[C@@H]4O[C@@H]4C4=CC(=O)C=C[C@]4(C)[C@H]3CC[C@]12C | 245 to 247 °C |  |  | 
12 | CC(=O)O[C@H]1CC[C@@]2(C)C(=CCC3C2CC[C@@]2(C)C3CC[C@@H]2C(C)=NO)C1 (stereo partly shown) [Compound 16] |  | no inhibition |  | > 10000 nM
13 | CC(=NO)[C@H]1CC[C@H]2[C@@H]3CCC4NC(=O)CC[C@]4(C)[C@H]3CC[C@]12C (stereo partly shown) [Compound 6, 4-Aza-pregnane-3,20-dione-20-oxime] | 194 to 196 °C | potent inhibition | 10 nM | 10 nM
14 | CC(=O)[C@H]1CCC2C3CCC(=O)[C@](C)(CCC(=O)O)C3CC[C@@]21C (stereo partly shown) [Compound 2, 5,20-Dioxo-A-nor-3,5-secopregnane-3-oic acid] | 176 to 178 °C | only a weak inhibitory activity |  | > 10000 nM
15 | CC(=NO)[C@H]1CCC2C3CCC4=CC(=O)CC[C@]4(C)C3CC[C@@]21C (stereo partly shown) [Compound 20] |  |  |  | 14 nM
16 | CC(=O)C1CCC2C3CC4OC45CC(O)CCC5(C)C3CCC12C (stereo not shown) [Compound 17] |  | no inhibition |  | > 10000 nM
17 | CC(=NO)[C@H]1CCC2C3CCC4=CC(=O)C=C[C@]4(C)C3CC[C@@]21C (stereo partly shown) [Compound 22, 1,4-Pregnadiene-20-oxime] |  |  |  | 140 nM
18 | CC(=NO)[C@H]1CC[C@H]2[C@@H]3C=CC4=CC(=O)[C@@H]5O[C@@H]5[C@]4(C)[C@H]3CC[C@]12C | 228 to 230 °C |  |  | 
19 | CC(C)(C)NC(=O)[C@H]1CC[C@H]2[C@@H]3CC[C@H]4NC(=O)C=C[C@]4(C)[C@H]3CC[C@]12C [Finasteride, finasteride, reference compound] |  |  | 1.2 nM | 1.2 nM
20 | CC(=NO)[C@H]1CCC2C3CCC(=O)[C@](C)(CCC(=O)O)C3CC[C@@]21C (stereo partly shown) [Compound 21] |  |  |  | 2100 nM
21 | CC(=O)[C@H]1CC[C@H]2[C@@H]3CCC4NC(=O)CC[C@]4(C)[C@H]3CC[C@]12C (stereo partly shown) [Compound 5, 4-Aza-pregnane-3,20-dione] |  | potent inhibition |  | 6100 nM
